The values that follow come from ChEMBL document CHEMBL4177665, “Inhibitory effect of moschamine isolated from Carthamus tinctorius on LPS-induced inflammatory mediators via AP-1 and STAT1/3 inactivation in RAW 264.7 macrophages” (Bioorg Med Chem Lett, 2017).

pIC50: −log10 of the molar value. Calls of active or inactive are those of the source. The rule behind the calls is not given here.

Data set [1] relates to RAW264.7. As to the kind of experiment: Cytotoxicity against mouse RAW264.7 cells assessed as reduction in cell viability up to 200 uM measured after 24 hrs in absence of LPS by MTT assay. Type of data set: cell-based. The following applies: raw264.7, 24 h. For orientation: Tetrazolium assays rely on reduction of a dye to a coloured formazan, in cell work by metabolically active cells.

Data set [2] concerns RAW264.7. As to the kind of experiment: Antiinflammatory activity in mouse RAW264.7 cells assessed as inhibition of LPS-induced PGE2 production pretreated for 1 hr followed by LPS addition measured after 24 hrs. The data set is classed as functional, cell-based.
The subject of data set [3] is RAW264.7. The data set is described as follows: Cytotoxicity against mouse RAW264.7 cells assessed as reduction in cell viability up to 200 uM measured after 24 hrs in presence of LPS by MTT assay. Type of data set: cell-based. The note with it: raw264.7, 24 h.
The subject of data set [4] is RAW264.7. The data set is described as follows: Antiinflammatory activity in mouse RAW264.7 cells assessed as inhibition of LPS-induced nitric oxide production measured after 24 hrs by Griess assay. The note with it: RAW264.7, 24 h. The data set is classed as functional, cell-based.
The target of data set [5] is MAP kinase p38 (Mus musculus) (UniProt P47811+O08911+Q9WUI1+Q9Z1B7). The data set is described as follows: Inhibition of LPS-induced p38 phosphorylation in mouse RAW264.7 cells at 50 uM pretreated for 1 hr followed by LPS-stimulation measured up to 30 mins by Western blot analysis. Type of data set: cell-based. Background: A western blot detects proteins with antibodies after separation by electrophoresis.

For data set [6], the system named is RAW264.7. The data set is described as follows: Antiinflammatory activity in mouse RAW264.7 cells assessed as inhibition of LPS-stimulated IL-6 mRNA expression at 50 uM measured up to 6 hrs by SYBR green dye based RT-PCR analysis. The data set is classed as functional, cell-based.
Data set [7] concerns RAW264.7. As to the kind of experiment: Antiinflammatory activity in mouse RAW264.7 cells assessed as inhibition of LPS-stimulated COX2 expression at 12.5 to 50 uM pretreated for 1 hr followed by LPS-stimulation measured after 12 hrs by Western blot analysis. The data set is classed as functional, cell-based.
Data set [8] has as its target Tyrosine-protein kinase JAK1 (Mus musculus) (UniProt P52332). The data set is described as follows: Inhibition of JAK1 in LPS-stimulated mouse RAW264.7 cells assessed as reduction in STAT3 phosphorylation at […] residue pretreated for 1 hr followed by LPS-stimulation by Western blot analysis. The data set is classed as cell-based.
Data set [9] relates to RAW264.7. As to the kind of experiment: Antiinflammatory activity in mouse RAW264.7 cells assessed as inhibition of LPS-stimulated IL1beta mRNA expression at 50 uM measured up to 6 hrs by SYBR green dye based RT-PCR analysis. The data set is classed as functional, cell-based.
Data set [10] addresses Transcription factor Jun (Mus musculus) (UniProt P05627). As to the kind of experiment: Inhibition of LPS-induced c-JUN phosphorylation in mouse RAW264.7 cells at 50 uM pretreated for 1 hr followed by LPS-stimulation measured up to 30 mins by Western blot analysis. Type of data set: cell-based.
Data set [11] concerns RAW264.7. The data set is described as follows: Inhibition of LPS-induced ERK phosphorylation in mouse RAW264.7 cells at 50 uM pretreated for 1 hr followed by LPS-stimulation measured up to 30 mins by Western blot analysis. The data set is classed as cell-based.
For data set [12], the system named is RAW264.7. The data set is described as follows: Inhibition of LPS-induced JNK phosphorylation in mouse RAW264.7 cells at 50 uM pretreated for 1 hr followed by LPS-stimulation measured up to 30 mins by Western blot analysis. The data set is classed as cell-based.
Data set [13] concerns the target Transcription factor Jun (Homo sapiens) (UniProt P05412). As to the kind of experiment: Inhibition of AP1 (unknown origin) expressed in LPS-stimulated mouse RAW264.7 cells at 12.5 to 50 uM pretreated for 1 hr followed by LPS-stimulation measured after 18 hrs by luciferase reporter gene assay. The data set is classed as cell-based.
The test system of data set [14] is RAW264.7. As to the kind of experiment: Antiinflammatory activity in mouse RAW264.7 cells assessed as inhibition of LPS-stimulated iNOS mRNA expression at 50 uM measured up to 12 hrs by SYBR green dye based RT-PCR analysis. The data set is classed as functional, cell-based.
Data set [15] relates to RAW264.7. The data set is described as follows: Antiinflammatory activity in mouse RAW264.7 cells assessed as inhibition of LPS-stimulated iNOS expression at 12.5 to 50 uM pretreated for 1 hr followed by LPS-stimulation measured after 12 hrs by Western blot analysis. The data set is classed as functional, cell-based.
The target of data set [16] is Tyrosine-protein kinase JAK1 (Mus musculus) (UniProt P52332). As to the kind of experiment: Inhibition of JAK1 in LPS-stimulated mouse RAW264.7 cells assessed as reduction in STAT1 phosphorylation at Y701 residue pretreated for 1 hr followed by LPS-stimulation by Western blot analysis. The data set is classed as cell-based.
Sequence of Tyrosine-protein kinase JAK1 (Mus musculus) (P52332 whole entry): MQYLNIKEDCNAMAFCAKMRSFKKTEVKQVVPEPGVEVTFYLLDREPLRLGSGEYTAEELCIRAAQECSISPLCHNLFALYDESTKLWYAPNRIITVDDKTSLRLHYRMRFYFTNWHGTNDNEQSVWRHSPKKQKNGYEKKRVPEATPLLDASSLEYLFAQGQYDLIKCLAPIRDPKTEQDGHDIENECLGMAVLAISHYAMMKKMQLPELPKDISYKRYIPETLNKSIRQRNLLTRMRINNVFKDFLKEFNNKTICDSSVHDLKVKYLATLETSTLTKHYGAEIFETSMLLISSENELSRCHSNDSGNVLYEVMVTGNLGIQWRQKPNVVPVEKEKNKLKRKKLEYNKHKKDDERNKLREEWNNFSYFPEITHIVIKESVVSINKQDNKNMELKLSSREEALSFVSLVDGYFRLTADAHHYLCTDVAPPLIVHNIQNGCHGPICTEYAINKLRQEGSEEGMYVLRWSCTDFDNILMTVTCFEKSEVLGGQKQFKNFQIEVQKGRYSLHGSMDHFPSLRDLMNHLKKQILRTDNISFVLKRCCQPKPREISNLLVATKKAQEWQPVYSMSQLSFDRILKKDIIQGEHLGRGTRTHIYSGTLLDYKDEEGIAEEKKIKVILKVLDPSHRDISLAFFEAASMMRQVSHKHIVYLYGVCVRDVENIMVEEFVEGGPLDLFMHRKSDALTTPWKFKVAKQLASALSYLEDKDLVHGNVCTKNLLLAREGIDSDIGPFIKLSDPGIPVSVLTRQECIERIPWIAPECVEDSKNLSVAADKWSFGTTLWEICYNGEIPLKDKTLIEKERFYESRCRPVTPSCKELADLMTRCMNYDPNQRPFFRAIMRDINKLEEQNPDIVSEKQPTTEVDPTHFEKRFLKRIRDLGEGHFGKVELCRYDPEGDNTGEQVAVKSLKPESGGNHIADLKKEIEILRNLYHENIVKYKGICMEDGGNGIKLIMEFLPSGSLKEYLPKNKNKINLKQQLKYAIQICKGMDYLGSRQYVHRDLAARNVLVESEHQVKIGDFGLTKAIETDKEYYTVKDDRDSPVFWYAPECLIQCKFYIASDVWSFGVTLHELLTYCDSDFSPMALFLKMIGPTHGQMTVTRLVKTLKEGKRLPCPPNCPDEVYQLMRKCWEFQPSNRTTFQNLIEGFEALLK
The test system of data set [17] is RAW264.7. As to the kind of experiment: Inhibition of LPS-induced c-JUN expression in mouse RAW264.7 cells at 50 uM pretreated for 1 hr followed by LPS-stimulation measured up to 30 mins by Western blot analysis. The data set is classed as functional, cell-based.
Data set [18] deals with RAW264.7. As to the kind of experiment: Antiinflammatory activity in mouse RAW264.7 cells assessed as inhibition of LPS-stimulated mPGES1 mRNA expression at 50 uM measured up to 12 hrs by SYBR green dye based RT-PCR analysis. Type of data set: functional, cell-based.
The test system of data set [19] is RAW264.7. As to the kind of experiment: Antiinflammatory activity in mouse RAW264.7 cells assessed as inhibition of LPS-stimulated IL1beta production in mouse RAW264.7 cells at 50 uM pretreated for 1 hr followed by LPS addition measured after 24 hrs by enzyme immunoassay relative to control. The data set is classed as functional.
The subject of data set [20] is RAW264.7. The data set is described as follows: Antiinflammatory activity in mouse RAW264.7 cells assessed as inhibition of LPS-stimulated IL-6 production in mouse RAW264.7 cells at 50 uM pretreated for 1 hr followed by LPS addition measured after 24 hrs by enzyme immunoassay relative to control. Type of data set: functional.
Data set [21] concerns the target Tyrosine-protein kinase JAK1 (Mus musculus) (UniProt P52332). The data set is described as follows: Inhibition of JAK1 in LPS-stimulated mouse RAW264.7 cells assessed as reduction in STAT1 phosphorylation at S727 residue pretreated for 1 hr followed by LPS-stimulation by Western blot analysis. The data set is classed as cell-based.
The subject of data set [22] is RAW264.7. As to the kind of experiment: Antiinflammatory activity in mouse RAW264.7 cells assessed as inhibition of LPS-stimulated COX2 mRNA expression at 50 uM measured up to 12 hrs by SYBR green dye based RT-PCR analysis. The data set is classed as functional, cell-based.
Data set [23] relates to RAW264.7. As to the kind of experiment: Inhibition of NFKappaB (unknown origin) expressed in LPS-stimulated mouse RAW264.7 cells by luciferase reporter gene assay. The following applies: Homo sapiens. Type of data set: cell-based.
In data set [24] the test system is RAW264.7. The data set is described as follows: Antiinflammatory activity in mouse RAW264.7 cells assessed as inhibition of LPS-stimulated IL-6 production pretreated for 1 hr followed by LPS addition measured after 24 hrs by enzyme immunoassay. Type of data set: functional, cell-based.
Data set [25] has as its system RAW264.7. The data set is described as follows: Antiinflammatory activity in mouse RAW264.7 cells assessed as inhibition of LPS-stimulated IL1beta production in mouse RAW264.7 cells pretreated for 1 hr followed by LPS addition measured after 24 hrs by enzyme immunoassay. The data set is classed as functional, cell-based.
In data set [26] the test system is RAW264.7. As to the kind of experiment: Antiinflammatory activity in mouse RAW264.7 cells assessed as inhibition of LPS-induced nitric oxide production pretreated for 1 hr followed by LPS stimulation measured after 24 hrs by Griess assay. The data set is classed as functional, cell-based.
The subject of data set [27] is RAW264.7. The data set is described as follows: Inhibition of LPS-induced c-FOS expression in mouse RAW264.7 cells at 50 uM pretreated for 1 hr followed by LPS-stimulation measured after 15 mins by Western blot analysis. The data set is classed as functional, cell-based.
Data set [28] deals with RAW264.7. The data set is described as follows: Antiinflammatory activity in mouse RAW264.7 cells assessed as inhibition of LPS-stimulated mPGES1 expression at 12.5 to 50 uM pretreated for 1 hr followed by LPS-stimulation measured after 12 hrs by Western blot analysis. Type of data set: functional, cell-based.
The target in data set [29] is Protein c-Fos (Mus musculus) (UniProt P01101). As to the kind of experiment: Inhibition of LPS-induced c-FOS phosphorylation in mouse RAW264.7 cells at 50 uM pretreated for 1 hr followed by LPS-stimulation measured after 15 mins by Western blot analysis. Type of data set: cell-based.
Sequence of Protein c-Fos (Mus musculus) (P01101 whole entry): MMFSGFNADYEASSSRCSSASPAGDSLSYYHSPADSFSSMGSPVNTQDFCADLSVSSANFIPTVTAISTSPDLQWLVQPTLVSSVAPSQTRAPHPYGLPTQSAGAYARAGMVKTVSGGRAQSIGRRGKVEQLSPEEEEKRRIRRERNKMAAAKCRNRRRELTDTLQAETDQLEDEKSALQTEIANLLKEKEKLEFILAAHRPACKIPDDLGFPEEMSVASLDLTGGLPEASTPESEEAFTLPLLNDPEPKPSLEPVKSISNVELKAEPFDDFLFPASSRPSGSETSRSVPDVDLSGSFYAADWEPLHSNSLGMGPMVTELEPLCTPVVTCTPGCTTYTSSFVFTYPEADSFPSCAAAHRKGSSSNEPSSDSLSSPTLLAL

Sequence of Transcription factor Jun (Homo sapiens) (P05412 whole entry): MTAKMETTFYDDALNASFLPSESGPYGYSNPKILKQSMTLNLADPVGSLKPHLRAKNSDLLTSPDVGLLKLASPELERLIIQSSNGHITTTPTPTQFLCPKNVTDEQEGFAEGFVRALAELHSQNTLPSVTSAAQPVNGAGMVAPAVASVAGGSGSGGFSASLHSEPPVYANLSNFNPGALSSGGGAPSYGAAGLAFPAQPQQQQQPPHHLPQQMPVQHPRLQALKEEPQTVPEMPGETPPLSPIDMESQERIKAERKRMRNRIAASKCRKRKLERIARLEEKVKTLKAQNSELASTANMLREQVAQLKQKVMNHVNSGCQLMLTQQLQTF
Sequence of Transcription factor Jun (Mus musculus) (P05627 whole entry): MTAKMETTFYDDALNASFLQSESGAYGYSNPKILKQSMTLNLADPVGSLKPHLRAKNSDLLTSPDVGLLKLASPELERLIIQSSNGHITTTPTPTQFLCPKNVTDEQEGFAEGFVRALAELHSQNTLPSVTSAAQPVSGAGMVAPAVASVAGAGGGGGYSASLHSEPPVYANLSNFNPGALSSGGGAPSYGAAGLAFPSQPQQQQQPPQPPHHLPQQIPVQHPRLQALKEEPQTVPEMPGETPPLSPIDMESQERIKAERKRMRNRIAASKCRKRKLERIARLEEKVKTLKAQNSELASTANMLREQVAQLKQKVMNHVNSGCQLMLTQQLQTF

Broadly, the pIC50 is the IC50 on a negative log10 scale, so that one unit is a factor of ten. With `COc1cc(/C=C/C(=O)NCCc2c[nH]c3ccc(O)c(-c4c(O)ccc5[nH]cc(CCNC(=O)/C=C/c6ccc(O)cc6)c45)c23)ccc1O`, the Activity result in data set [1] and in [3] was “Non-Toxic” throughout. The figures for the negative logarithm of the IC50 (pIC50) in [2] and in [4] were less than 4.00 and less than 3.70, respectively.
Turning to `CC(=O)OC[C@H]1O[C@@H](O[C@H](C)[C@H]2C[C@H](O)[C@H]3[C@@H]4CCC5=CC(=O)CC[C@]5(C)[C@H]4CC[C@@]32C)[C@H](O)[C@@H](O)[C@@H]1O[C@@H]1O[C@H](CO)[C@@H](O)[C@H](O)[C@H]1O`, the Activity entry in data set [1] and in data set [3] was “Non-Toxic” each time. The negative logarithm of the IC50 (pIC50) was less than 4.00 in data set [2] and less than 3.70 in [4].
As for `COc1cc(/C=C/C(=O)NCCc2c[nH]c3ccc(O)c(-c4c(O)ccc5[nH]cc(CCNC(=O)/C=C/c6ccc(O)c(OC)c6)c45)c23)ccc1O`, the Activity entry in data set [1] and in data set [3] was “Non-Toxic” each time. Further, the figures for the pIC50 in data set [2] and in data set [4] were less than 4.00 and less than 3.70, respectively.
On to `O=C(/C=C/c1ccc(O)cc1)NCCc1c[nH]c2ccc(O[C@@H]3O[C@H](CO)[C@@H](O)[C@H](O)[C@H]3O)cc12`, for which the Activity entry in [1] and in data set [3] was “Non-Toxic” each time. Moreover, the figures for the negative-log IC50 (pIC50) in [2] and in [4] were 4.05 and 3.87, respectively.
Take `COc1ccc(C[C@H]2COC(=O)[C@]2(O)Cc2ccc(O[C@@H]3O[C@H](CO)[C@@H](O)[C@H](O)[C@H]3O)c(OC)c2)cc1OC`: the Activity entry in data set [1] and in data set [3] was “Non-Toxic” in each case. The negative-log IC50 (pIC50) in data set [2] was less than 4.00; in [4], less than 3.70.
In the case of `O=C(/C=C/c1ccc(O)cc1)NCCc1c[nH]c2ccc(O)c(-c3c(O)ccc4[nH]cc(CCNC(=O)/C=C/c5ccc(O)cc5)c34)c12`, the Activity result in data set [1] and in [3] was “Non-Toxic” throughout. Further, the negative logarithm of the IC50 (pIC50) in [2] is less than 4.00; in data set [4] it was less than 3.70.
Take `COc1cc(C[C@@H](CO)[C@H](CO)Cc2ccc(O)c(OC)c2)ccc1O` [(+)-SECOISOLARICIRESINOL]: the Activity result in data set [1] and in [3] was “Non-Toxic” in each case. In addition, the pIC50 in data set [2] is less than 4.00; in data set [4] it was less than 3.70.
Take `CC(=N)NCCCC[C@H](N)C(=O)O` [L-NIL]: in data set [4], the negative-log IC50 (pIC50) is 4.55.
A word on the inhibition: it is the share of the control response that was lost under treatment. On to `COc1cc(/C=C/C(=O)NCCc2c[nH]c3ccc(O)cc23)ccc1O` [N-FERULOYL SEROTONIN], for which the Activity result in data set [1] and in [3] was “Non-Toxic” each time. The inhibition result in [5], in [6], in data set [7], in data set [9], in [11] and in [13] was “Active” each time. Besides, the inhibition result in data set [14], in data set [15], in [18], in data set [22], in [27] and in data set [28] was “Active” in each case. Besides, the inhibition entry in data set [29] is “Active”. For the same molecule, the values for the pIC50 in data set [2] and in data set [4] were 4.83 and 3.91, respectively. Further, the inhibition entry in data set [2], in data set [8], in data set [16], in data set [21], in [24] and in data set [25] was “Dose-dependent effect” in each case. Besides, the inhibition entry in data set [26] is “Dose-dependent effect”. Further, the inhibition result in data set [10], in data set [12], in data set [17] and in [23] was “inactive” each time. In addition, the inhibition at 50 µM stood at 52.2% in [19] and 25.1% in data set [20].
On to `O=C(/C=C/c1ccc(O)cc1)NCCc1c[nH]c2ccc(O)cc12` [N-P-COUMAROYL SEROTONIN], for which the Activity entry in data set [1] and in data set [3] was “Non-Toxic” each time. Besides, the values for the negative logarithm of the IC50 (pIC50) in data set [2] and in data set [4] were 4.36 and 3.78, respectively.
